From patent US12667545B2, “Lyophilized compositions of phenobarbital sodium salt” (Nivagen Pharmaceuticals, Inc., priority 2019, dated 2026)

What was measured:
[1] = X-Ray Powder Diffraction (XRPD); type: physicochemical; settings: FIGS. 5A-5D
Protocol: X-Ray Powder Diffraction. With reference to FIGS. 5A-5D, XRPD was performed using the Rigaku Smart-Lab X-ray diffraction system configured for reflection Bragg-Brentano geometry using a line source X-ray beam. The X-ray source is a Cu Long Fine Focus tube that was operated at 40 kV and 44 mA. That source provides an incident beam profile at the sample that changes from a narrow line at high angles to a broad rectangle at low angles. Beam conditioning slits were used on the line X-ray source to ensure that the maximum beam size is less than 10 mm both along the line and normal to the line. The Bragg-Brentano geometry is a para-focusing geometry controlled by passive divergence and receiving slits with the sample itself acting as the focusing component for the optics. The inherent resolution of Bragg-Brentano geometry is governed in part by the diffractometer radius and the width of the receiving slit used. Typically, the Rigaku Smart-Lab is operated to give peak widths of 0.1° 2θ or less. The axial divergence of the X-ray beam is controlled by 5.0-degree Soller slits in both the incident and diffracted beam paths. […] The samples were analyzed from 2 to 40° 2θ using a continuous scan of 6° 2θ per minute with an effective step size of 0.02° 2θ.

[2] = cited from earlier work

Compound | solid form by XRPD [1] | liver enzyme induction ([2]; Nayyar et al., 2012) | serum calcium and folate ([2]; patients treated with Pheneturide)
CCC1(c2ccccc2)C(=O)N=C([O-])NC1=O.[Na+] (stereo not drawn) [USP grade P API, sodium 5-ethyl-4,6-dioxo-5-phenyl-1H-pyrimidin-2-olate] | polymorphous | – | –
CCC(C(=O)NC(N)=O)c1ccccc1 (stereo not drawn) [Pheneturide, phenylethylacetylurea] | – | potent liver enzyme inducer | low levels
